Read-outs that look alike come from different tables or passages of the source.
Tests used:
[1] = test system: MDCK cells; settings: cited from earlier work
[2] = test system: A/California/04/2009 (H1N1) virus; assay: microbe, parasite or virus in culture; assay type: cell-based, Influenza A virus; settings: for EC50: Influenza A virus
[3] = test system: Ca/04 (H1N1) virus; set-up: species or system mice; settings: mouse, in vivo
[4] = mouse, in vivo
[5] = test system: several contemporary influenza A viruses; assay: microbe, parasite or virus in culture; assay type: cell-based; settings: read-out: EC50 values against all IAVs tested
[6] = in vivo; settings: male, BALB/c, mouse, ip, 50 mg/kg
[7] = in vitro; settings: dog

Structure (SMILES) | CC50 [1] | EC50 ([2]; H1N1, read-out: EC50 alone Oseltamivir (nM)) | Clinical signs: activity [3] | Clinical signs: physical appearance [3] | Influenza virus nucleoprotein in lungs by immunostaining [3] | Loss of initial body weight [3] | Survival [3] | Virus titers in lung and NT by TCID50 vs Ca/04-vehicle group [3] | Histopathology of brain, livers, kidneys, lungs and hearts [4] | Combination effect with oseltamivir in cell culture [2] | EC50 ([2]; H1N1, read-out: EC50 alone UAWJ280 (μM)) | EC50 [5] | AUC(0-inf) [6] | CL/F [6] | Cmax [6] | Tmax [6] | Vd/F [6] | half-life [6] | Section with pneumocyte type 2 hyperplasia and hypertrophy, alveolar oedema and inflammation [3] | CC50 [7]
CCC(CC)O[C@@H]1C=C(C(=O)O)C[C@H](N)[C@H]1NC(C)=O [Oseltamivir carboxylate] | > 20000 nM | – | – | – | – | – | – | – | – | – | – | – | – | – | – | – | – | – | – | –
CCOC(=O)C1=C[C@@H](OC(CC)CC)[C@H](NC(C)=O)[C@@H](N)C1 [Oseltamivir, Oseltamivir phosphate, reference compound] | – | 1.77 ± 0.11 nM | remained alert | mild clinical signs | mild-moderate amounts of viral antigens | ~15% | 85% | trend towards reduced virus load | no signs of toxicity | – | – | – | – | – | – | – | – | – | – | –
OC12CC3CC(C1)CC(NCc1ccc(I)s1)(C3)C2 [UAWJ106] | > 100000 nM | – | – | – | – | – | – | – | – | – | – | – | – | – | – | – | – | – | – | –
[2H]C(NC12CC3CC(CC(O)(C3)C1)C2)c1ccc(I)s1 (stereo not shown) [UAWJ280, 3-{[(5-iodothiophen-2-yl)(D)methyl]amino}adamantan-1-ol] | – | – | minor changes in activity | mild clinical signs | moderate amounts of virus nucleoprotein | ~15% | 90% | trend towards reduced virus load | no signs of toxicity | strong synergistic antiviral effect | 300 ± 18 nM | 200 to 600 nM | 11.5 µM·h | 187 mL/min/kg | 5.61 µM | 0.42 h | 38 ± 4.4 L/kg | 2.34 h | up to 80% | > 100000 nM

From PMC8451667 (Emerging Microbes & Infections, 2021)
